Read-outs that look alike come from different tables or passages of the source.
Columns and labels:
[1] = 0.05% to 5% solution; cited from earlier work
[2] = format: physicochemical; details: for Benzyl alcohol mg/g (55° C.) / Lidocaine mg/g (45° C.): in REVANESSE dermal filler
Procedure: The benzyl alcohol product was held for 12 weeks at 55° C. which approximates 2 years shelf life; the amount of benzyl alcohol degraded by only 5.75%. In contrast, the amount of lidocaine degraded by 11.61% over 12 weeks at 45° C., which approximates to 1 year shelf life.

[3] = cited from earlier work
[4] = 5% solution, animal studies; cited from earlier work

stability compared with lidocaine [2] | Benzyl alcohol mg/g (55° C.) ([2]; 0 weeks) [mg/g] | Benzyl alcohol mg/g (55° C.) ([2]; 4 weeks) [mg/g] | Benzyl alcohol mg/g (55° C.) ([2]; 8 weeks) [mg/g] | amount degraded ([2]; 12 weeks, 8.7 mg/g) [%] | Benzyl alcohol mg/g (55° C.) ([2]; 12 weeks) [mg/g] | Structure (SMILES) | anesthetic effectiveness [1] | injection pain and anesthesia duration ([3]; in combination with lidocaine (1%)) | duration of anesthetic effect compared with lidocaine ([3]; in vivo) | injection pain compared with plain lidocaine ([3]; injection) | safety [4] | Lidocaine mg/g (45° C.) ([2]; 0 weeks) [mg/g] | Lidocaine mg/g (45° C.) ([2]; 4 weeks) [mg/g] | Lidocaine mg/g (45° C.) ([2]; 8 weeks) [mg/g] | amount degraded ([2]; 12 weeks, 3.1 mg/g) [%] | Lidocaine mg/g (45° C.) ([2]; 12 weeks) [mg/g]
better than lidocaine | 8.7 | 8.7 | 8.6 | 5.75 | 8.2 | OCc1ccccc1 [Benzyl alcohol, benzyl alcohol] | considered somewhat effect | reduces injection pain as well as anesthesia duration | shorter duration than lidocaine | significantly less painful | deemed safe |  |  |  |  | 
 |  |  |  |  |  | CCN(CC)CC(=O)Nc1c(C)cccc1C [Lidocaine, lidocaine, reference compound] |  |  |  |  |  | 3.1 | 2.9 | 2.82 | 11.61 | 2.74
